Source: the OligoGym collection
Where “and” joins values, the source holds several entries; their conditions need not be identical. Identical values can stand only once. After the bases stand the sugars from the 5' end (letter, count) and the backbone: PS all phosphorothioate, else s phosphorothioate and o phosphodiester by linkage. Methylation of C is not given here. e = 2'-O-(2-methoxyethyl) (MOE); k = constrained ethyl (cEt); d = 2'-deoxy (DNA)

Target: KRAS
Conditions: ASO

Sequence | target mRNA inhibition (A431, 2 µM) | also measured
GTGTTTATGCAATGTT (sugars kkddddddddddkeke, PS) | 73% | target mRNA inhibition (A431, 0.185 µM): 44%; target mRNA inhibition (A431, 0.556 µM): 71%; target mRNA inhibition (A431, 1.667 µM): 83%; target mRNA inhibition (A431, 5 µM): 92%
TTAGTGATTAGGTCAA (sugars kkddddddddddkeke, PS) | 22% | 
TAGGGCATTTCTGATG (sugars k3 d10 k3, PS) | 20% | 
GTCCAGTGATACTTTC (sugars kkkddddddddkekek, PS) | 21% | 
AAACAAATGCTAATAA (sugars k3 d10 k3, PS) | 9% | 
TGGTGTAACATAGGTT (sugars k3 d10 k3, PS) | 58% | target mRNA inhibition (A431, 0.185 µM): 0%; target mRNA inhibition (A431, 0.556 µM): 35%; target mRNA inhibition (A431, 1.667 µM): 61%; target mRNA inhibition (A431, 5 µM): 78%
ACTTATGCAGAGAAAA (sugars k3 d10 k3, PS) | 37% | 
ATAATAGTTTCCATTG (sugars k3 d10 k3, PS) | 8% | 
TAATAATCCCCATTTC (sugars k3 d10 k3, PS) | 9% | 
AAACGAGAATGGATAT (sugars k3 d10 k3, PS) | 12% | 
TAATCTTTTAATGTCA (sugars k3 d10 k3, PS) | 7% | 
ATTGTGCTGAGCTTGA (sugars k3 d10 k3, PS) | 51% | 
AAGCTATTAGGAGTCT (sugars k3 d10 k3, PS) | 65% | 
TCAACTGCATGCACCA (sugars k3 d10 k3, PS) | 52% | 
CCATTCAAAGTTCACA (sugars kkkddddddddkekek, PS) | 39% | 
CTTGATTTGTCAGCAG (sugars kdddddddddkekeke, PS) | 44% | target mRNA inhibition (A431, 0.037 µM): 51%
TGATTTGTCAGCAGGA (sugars k3 d9 k3 e1, PS) | 63% | target mRNA inhibition (A431, 0.185 µM): 26%; target mRNA inhibition (A431, 0.556 µM): 52%; target mRNA inhibition (A431, 1.667 µM): 70%; target mRNA inhibition (A431, 5 µM): 80%

Sequence | target mRNA inhibition (A431, 2 µM) | also measured
TGTAAATATAGCCCCA (sugars k3 d10 k3, PS) | 34% | 
AGACTTGAAAAGTGTT (sugars k3 d10 k3, PS) | 28% | 
AATTACTTATGCAGAG (sugars k3 d10 k3, PS) | 44% | 
TAATGGTGAATATCTT (sugars k3 d10 k3, PS) | 11% | 
AGATTGTGCTGAGCTT (sugars kkddddddddddkeke, PS) | 40% | 
GTAATTAATCCATTTA (sugars k3 d10 k3, PS) | 15% | 
TAGTGATTAGGTCAAA (sugars kkddddddddkekekk, PS) | 42% | 
CTTGATTTGTCAGCAG (sugars kddddddddddkekek, PS) | 45% | target mRNA inhibition (A431, 0.037 µM): 62%
TGACTAATAGCAGTGG (sugars k3 d10 k3, PS) | 58% | target mRNA inhibition (A431, 0.037 µM): 64%; target mRNA inhibition (A431, 5 µM): 96% and 93%; target mRNA inhibition (NCI-H460, 0.037 µM): 53.3%
CTTGATTTGTCAGCAG (sugars kkkdddddddddkeke, PS) | 46% | 
ATCCAGTATTAACACA (sugars k3 d10 k3, PS) | 0% | 
CCATTTATGTGACTAG (sugars k3 d9 k3 e1, PS) | 49% | target mRNA inhibition (A431, 0.185 µM): 28%; target mRNA inhibition (A431, 0.556 µM): 47%; target mRNA inhibition (A431, 1.667 µM): 53%; target mRNA inhibition (A431, 5 µM): 66%
GGTTAGGGGAATTACA (sugars k3 d10 k3, PS) | 26% | 
ATGGTGTAACATAGGT (sugars k3 d9 k3 e1, PS) | 47% | 
CCATTTATGTGACTAG (sugars k3 d10 k3, PS) | 94% and 75% | target mRNA inhibition (A431, 0.125 µM): 70% and 67%; target mRNA inhibition (A431, 0.185 µM): 30% and 14%; target mRNA inhibition (A431, 0.556 µM): 56% and 35%; target mRNA inhibition (A431, 5 µM): 83% and 72%; target mRNA inhibition (NCI-H460, 0.037 µM): 52.4%
TGTTTATGCAATGTTA (sugars kkdddddddddkekek, PS) | 56% | target mRNA inhibition (A431, 0.185 µM): 50%; target mRNA inhibition (A431, 0.556 µM): 46%; target mRNA inhibition (A431, 1.667 µM): 69%; target mRNA inhibition (A431, 5 µM): 82%
